Source: US20120172384A1, “HETEROCYCLYLAMINOPYRIMIDINES AS KINASE INHIBITORS” (priority 2009, published 2012)

Legend:
ZAP-70 = target: T1, ZAP-70 (Homo sapiens, UniProt P43403); test: ZAP-70 kinobeads assay; type: binding; settings: cell lysate, dot blot with ZAP-70 antibody
T1 construct: endogenous in cells
T1 sequence (P43403 1-619): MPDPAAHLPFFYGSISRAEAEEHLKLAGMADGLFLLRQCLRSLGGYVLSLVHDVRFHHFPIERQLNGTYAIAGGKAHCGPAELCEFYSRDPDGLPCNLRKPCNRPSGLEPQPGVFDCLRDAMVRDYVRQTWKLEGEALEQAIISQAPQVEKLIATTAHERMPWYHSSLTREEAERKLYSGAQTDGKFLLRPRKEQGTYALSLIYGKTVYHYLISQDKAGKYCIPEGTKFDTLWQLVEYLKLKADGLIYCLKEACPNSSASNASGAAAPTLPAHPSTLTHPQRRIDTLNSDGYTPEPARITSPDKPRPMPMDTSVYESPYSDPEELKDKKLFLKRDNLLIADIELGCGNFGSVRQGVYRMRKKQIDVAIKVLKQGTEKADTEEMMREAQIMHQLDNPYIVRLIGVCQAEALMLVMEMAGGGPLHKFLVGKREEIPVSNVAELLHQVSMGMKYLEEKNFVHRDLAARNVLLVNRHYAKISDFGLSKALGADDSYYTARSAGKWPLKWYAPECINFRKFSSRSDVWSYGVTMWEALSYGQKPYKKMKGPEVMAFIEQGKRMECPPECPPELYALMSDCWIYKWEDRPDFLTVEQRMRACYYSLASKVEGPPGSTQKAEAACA
Method: The compounds of the present invention as described in the previous examples were tested in the ZAP-70 kinobeads assay as described (EP-A 1862802 and WO-A 2007/137867). Briefly, test compounds (at various concentrations) and the affinity matrix with the immobilized aminopyrido-pyrimidine ligand 24 are added to cell lysate aliquots and allowed to bind to the proteins in the lysate sample. After the incubation time the beads with captured proteins are separated from the lysate. Bound proteins are then eluted and the presence ZAP-70 is detected and quantified using a specific antibody in a dot blot procedure and the Odyssey infrared detection system.

JAK3 = target: T2, JAK3 (Homo sapiens, UniProt P52333); test: JAK3 kinobeads assay; type: binding; settings: cell lysate, dot blot with JAK3 specific antibody
T2 construct: endogenous in cells
T2 sequence (P52333 1-1124): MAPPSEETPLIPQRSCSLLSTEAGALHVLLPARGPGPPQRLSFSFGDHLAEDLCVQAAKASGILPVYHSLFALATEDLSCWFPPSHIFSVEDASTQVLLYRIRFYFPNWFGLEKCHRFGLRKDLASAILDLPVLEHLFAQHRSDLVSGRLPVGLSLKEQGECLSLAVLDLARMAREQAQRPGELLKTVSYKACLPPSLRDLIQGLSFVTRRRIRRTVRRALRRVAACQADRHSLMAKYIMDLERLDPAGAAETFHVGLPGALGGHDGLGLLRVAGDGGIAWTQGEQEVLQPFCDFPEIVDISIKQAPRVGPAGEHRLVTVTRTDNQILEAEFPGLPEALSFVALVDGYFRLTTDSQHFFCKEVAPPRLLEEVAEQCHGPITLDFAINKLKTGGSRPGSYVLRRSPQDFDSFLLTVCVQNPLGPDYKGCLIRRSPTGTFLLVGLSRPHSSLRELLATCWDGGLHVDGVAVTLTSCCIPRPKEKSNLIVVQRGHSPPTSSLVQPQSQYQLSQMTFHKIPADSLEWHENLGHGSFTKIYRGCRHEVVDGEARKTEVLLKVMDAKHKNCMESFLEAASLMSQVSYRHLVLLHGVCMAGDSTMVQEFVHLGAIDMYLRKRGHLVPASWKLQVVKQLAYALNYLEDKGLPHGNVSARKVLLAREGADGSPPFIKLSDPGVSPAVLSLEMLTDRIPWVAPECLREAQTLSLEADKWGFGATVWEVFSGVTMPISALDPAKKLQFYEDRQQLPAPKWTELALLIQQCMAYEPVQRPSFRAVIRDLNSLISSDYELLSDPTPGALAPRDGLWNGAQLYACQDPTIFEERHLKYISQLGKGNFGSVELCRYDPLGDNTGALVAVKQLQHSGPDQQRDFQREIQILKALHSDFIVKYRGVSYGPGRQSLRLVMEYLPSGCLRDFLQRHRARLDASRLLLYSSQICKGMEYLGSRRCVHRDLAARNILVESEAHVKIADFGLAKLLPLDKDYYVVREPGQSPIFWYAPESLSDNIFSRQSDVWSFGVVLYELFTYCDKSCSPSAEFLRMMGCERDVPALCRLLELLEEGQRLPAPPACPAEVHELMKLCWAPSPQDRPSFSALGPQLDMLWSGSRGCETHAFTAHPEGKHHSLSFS
How it was run: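 In this competition pulldown, test compounds at various concentrations were incubated in cell lysate together with beads carrying an immobilized aminopyrido-pyrimidine ligand. Bead-bound proteins were eluted, and JAK3 was quantified by dot blot with a JAK3-specific antibody and infrared detection.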

| IC50 (ZAP-70) [nM] | IC50 (JAK3) [nM] | SMILES |
| --- | --- | --- |
| ≤ 100 | ≤ 100 | Cc1nn(C)cc1Nc1ncc(Cl)c(Nc2ccccc2NS(C)(=O)=O)n1 [Example 35, N-(2-(5-chloro-2-(1,3-dimethyl-1H-pyrazol-4-ylamino)pyrimidin-4-ylamino)phenyl)methanesulfonamide] |
| 1000 to 10000 | 1000 to 10000 | COc1ccc(Nc2nc(Nc3nonc3OC)ncc2Cl)c(NS(C)(=O)=O)c1 [Example 17, N-(2-(5-chloro-2-(4-methoxy-1,2,5-oxadiazol-3-ylamino)pyrimidin-4-ylamino)-5-methoxyphenyl)methanesulfonamide] |
| 100 to 1000 | ≤ 100 | Cn1cc(Nc2ncc(Cl)c(Nc3ccccc3NS(C)(=O)=O)n2)cn1 [Example 20, N-(2-(5-chloro-2-(1-methyl-1H-pyrazol-4-ylamino)pyrimidin-4-ylamino)phenyl)methanesulfonamide] |
| 100 to 1000 | ≤ 100 | Cn1ccc(Nc2ncc(Cl)c(Nc3ccccc3NS(C)(=O)=O)n2)n1 [Example 16, N-(2-(5-chloro-2-(1-methyl-1H-pyrazol-3-ylamino)pyrimidin-4-ylamino)phenyl)methanesulfonamide] |
| 100 to 1000 | ≤ 100 | Cn1cc(Nc2ncc(F)c(Nc3ccccc3NS(C)(=O)=O)n2)cn1 [Example 22, N-(2-(5-fluoro-2-(1-methyl-1H-pyrazol-4-ylamino)pyrimidin-4-ylamino)phenyl)methanesulfonamide] |
| 100 to 1000 | 1000 to 10000 | COc1ccc(Nc2nc(Nc3c(C)nn(C)c3C)ncc2Cl)c(NS(C)(=O)=O)c1 [Example 13, N-(2-(5-chloro-2-(1,3,5-trimethyl-1H-pyrazol-4-ylamino)pyrimidin-4-ylamino)-5-methoxyphenyl)methanesulfonamide] |
| ≤ 100 | ≤ 100 | COc1ccc(Nc2nc(Nc3c[nH]nc3C)ncc2Cl)c(NS(C)(=O)=O)c1 [Example 2, N-(2-(5-chloro-2-(3-methyl-1H-pyrazol-4-ylamino)pyrimidin-4-ylamino)-5-methoxyphenyl)methanesulfonamide] |
| 1000 to 10000 | ≤ 100 | CS(=O)(=O)Nc1ccccc1Nc1nc(Nc2ccon2)ncc1Cl [Example 38, N-(2-(5-chloro-2-(isoxazol-3-ylamino)pyrimidin-4-ylamino)phenyl)methanesulfonamide] |
| 1000 to 10000 | 100 to 1000 | CS(=O)(=O)Nc1ccccc1Nc1nc(Nc2cnoc2)ncc1Cl [Example 44, N-(2-((5-chloro-2-(isoxazol-4-ylamino)pyrimidin-4-yl)amino)phenyl)methanesulfonamide] |
| 100 to 1000 | ≤ 100 | COc1ccc(Nc2nc(Nc3cn[nH]c3)ncc2F)c(NS(C)(=O)=O)c1 [Example 24, N-(2-(2-(1H-pyrazol-4-ylamino)-5-fluoropyrimidin-4-ylamino)-5-methoxyphenyl)methanesulfonamide] |
| 1000 to 10000 | 100 to 1000 | COc1ccc(Nc2nc(Nc3ccon3)ncc2F)c(NS(C)(=O)=O)c1 [Example 36, N-(2-(5-fluoro-2-(isoxazol-3-ylamino)pyrimidin-4-ylamino)-5-methoxyphenyl)methanesulfonamide] |
| 100 to 1000 | ≤ 100 | COc1ccc(Nc2nc(Nc3cnn(C)c3)ncc2F)c(NS(C)(=O)=O)c1 [Example 21, N-(2-(5-fluoro-2-(1-methyl-1H-pyrazol-4-ylamino)pyrimidin-4-ylamino)-5-methoxyphenyl)methanesulfonamide] |
| 1000 to 10000 | 1000 to 10000 | COc1ccc(Nc2nc(Nc3nonc3C)ncc2Cl)c(NS(C)(=O)=O)c1 [Example 31, N-(2-(5-chloro-2-(4-methyl-1,2,5-oxadiazol-3-ylamino)pyrimidin-4-ylamino)-5-methoxyphenyl)methanesulfonamide] |
| 100 to 1000 | ≤ 100 | COc1ccc(Nc2nc(Nc3ccon3)ncc2Cl)c(NS(C)(=O)=O)c1 [Example 3, N-(2-(5-chloro-2-(isoxazol-3-ylamino)pyrimidin-4-ylamino)-5-methoxyphenyl)methanesulfonamide] |
| 1000 to 10000 | 100 to 1000 | CCn1cc(Nc2ncc(F)c(Nc3ccccc3NS(C)(=O)=O)n2)c(C)n1 [Example 37, N-(2-(2-(1-ethyl-3-methyl-1H-pyrazol-4-ylamino)-5-fluoropyrimidin-4-ylamino)phenyl)methanesulfonamide] |
| 100 to 1000 | 100 to 1000 | COc1ccc(Nc2nc(Nc3cc(C(C)C)nn3C)ncc2Cl)c(NS(C)(=O)=O)c1 [Example 11, N-(2-(5-chloro-2-(3-isopropyl-1-methyl-1H-pyrazol-5-ylamino)pyrimidin-4-ylamino)-5-methoxyphenyl)methanesulfonamide] |
| 100 to 1000 | ≤ 100 | CCn1cc(Nc2ncc(Cl)c(Nc3ccccc3NS(C)(=O)=O)n2)c(C)n1 [Example 33, N-(2-(5-chloro-2-(1-ethyl-3-methyl-M-pyrazol-4-ylamino)pyrimidin-4-ylamino)phenyl)methanesulfonamide] |
| 100 to 1000 | 100 to 1000 | COc1ccc(Nc2nc(Nc3ccn(C)n3)ncc2F)c(NS(C)(=O)=O)c1 [Example 7, N-(2-(5-fluoro-2-(1-methyl-1H-pyrazol-3-ylamino)pyrimidin-4-ylamino)-5-methoxyphenyl)methanesulfonamide] |
| ≤ 100 | 100 to 1000 | COc1ccc(Nc2nc(Nc3cnn(C)c3C)ncc2Cl)c(NS(C)(=O)=O)c1 [Example 67, N-(2-((5-chloro-2-((1,5-dimethyl-1H-pyrazol-4-yl)amino)pyrimidin-4-yl)amino)-5-methoxyphenyl)methanesulfonamide] |
| 100 to 1000 | ≤ 100 | CC(C)n1ccc(Nc2ncc(Cl)c(Nc3ccccc3NS(C)(=O)=O)n2)n1 [Example 40, N-(2-(5-chloro-2-(1-isopropyl-1H-pyrazol-3-ylamino)pyrimidin-4-ylamino)phenyl)methanesulfonamide] |
| 100 to 1000 | 100 to 1000 | COc1ccc(Nc2nc(Nc3cn(C)nc3C)ncc2F)c(NS(C)(=O)=O)c1 [Example 32, N-(2-(2-(1,3-dimethyl-M-pyrazol-4-ylamino)-5-fluoropyrimidin-4-ylamino)-5-methoxyphenyl)methanesulfonamide] |
| 100 to 1000 | 1000 to 10000 | CCn1nccc1Nc1ncc(Cl)c(Nc2ccc(OC)cc2NS(C)(=O)=O)n1 [Example 29, N-(2-(5-chloro-2-(1-ethyl-1H-pyrazol-5-ylamino)pyrimidin-4-ylamino)-5-methoxyphenyl)methanesulfonamide] |
| ≤ 100 | ≤ 100 | COc1ccc(Nc2nc(Nc3cc(C)nn3C)ncc2Cl)c(NS(C)(=O)=O)c1 [Example 8, N-(2-(5-chloro-2-(1,3-dimethyl-1H-pyrazol-5-ylamino)pyrimidin-4-ylamino)-5-methoxyphenyl)methanesulfonamide] |
| 100 to 1000 | ≤ 100 | Cc1cc(Nc2ncc(Cl)c(Nc3ccccc3NS(C)(=O)=O)n2)nn1C [Example 39, N-(2-(5-chloro-2-(1,5-dimethyl-1H-pyrazol-3-ylamino)pyrimidin-4-ylamino)phenyl)methanesulfonamide] |
